Source: US20060073994A1, “Liquid detergent composition” (Conopco, Inc., d/b/a UNILEVER, priority 2004, published 2006)

System: Protease enzyme
Experiment: Residual activity of protease enzyme in liquid detergent formulation with added perfume component after storage
Type: biochemical
Settings: 0.06% by weight perfume component added to 'base' liquid formulation; 2 weeks storage at 37° C.; activity determined at 40° C. in TRIS pH 9 buffer, tetrapeptide substrate; relative to t=0
Experimental: The following ‘base’ liquid detergent formulation was prepared: […]
The residual activity of the protease enzyme in all thus-formed formulations after 2 weeks storage at 37° C., was determined at 40° C. in a TRIS pH 9 buffer and using tetrapeptide as substrate. For this determination, the following protocol was used: Samples of 70 mg of the tested liquid formulation were diluted in 10.00 ml MilliQ water. 10 μl of this solution was added to an assay of 205 μl containing 74.4 mM TRIS pH9 and 0.494 mM tetrapeptide (succinyl-Ala-Ala-Pro-Phe-p-Nitroanilide). The absorbance of the tested samples at a wavelength of […] was measured for 15 minutes at 40° C., using a spectrophotometer. The absolute changes in absorbance as compared to the absorbance measured on a freshly prepared calibration sample were correlated to the measured activity of such freshly prepared sample. The measured protease enzyme activity is expressed as GU/ml.
The residual enzyme activity (expressed as %) is the enzyme activity after storage of the liquid formulation concerned divided by the enzyme activity measured at t=0.

| Compound | Residual activity after 2 weeks [%] |
| --- | --- |
| C/C=C\C(=O)C1C(C)=CCCC1(C)C (stereo not drawn) [Alpha damascone] | 68 |
| O=Cc1ccccc1 [Benzaldehyde] | 67 |
| CC(=O)OCc1ccccc1 [Benzyl acetate] | 69 |
| O=C/C=C/c1ccccc1 [Cinnamic aldehyde] | 58 |
| CC(C)=CCCC(C)=CC=O [Citral] | 36 |
| CC(C)=CCCC(C)CC=O (stereo not drawn) [Citronellal] | 62 |
| CC1=CC(C)C(C=O)CC1 (stereo not drawn) [Cyclal C] | 45 |
| CC1=CCC(C(C)C)=CC1 [Gamma terpinolene] | 54 |
| CCCCCCC(C=O)=Cc1ccccc1 [Hexylcinnamic aldehyde] | 81 |
| CC(=O)C1(C)CC2=C(CCCC2(C)C)CC1C (stereo not drawn) [Iso e super] | 75 |
| CC(C=O)Cc1ccc(C(C)(C)C)cc1 (stereo not drawn) [Lilial] | 48 |
| C=C(C)[C@H]1CC=C(C)CC1 [Limonene] | 60 |
| COC(=O)c1ccccc1N [Methyl anthranilate] | 70 |
| CCCCCCCC=O [Octanal] | 44 |
| N#CC(=C1CCCCC1)c1ccccc1 [Peonile] | 73 |
| CC(C)=CCCC1=CCC(C)(C=O)CC1 (stereo not drawn) [Precyclemone] | 74 |
| CC(C)=C1CC[C@@H](C)CC1=O [Pulegone] | 58 |
| CC(C)=CC1CC(C)CCO1 (stereo not drawn) [Rose oxide] | 60 |
| CC1=CCC(=C(C)C)CC1 [Terpinolene] | 47 |
| CCC(C)(O)CCCC(C)C (stereo not drawn) [Tetra hydrolinalool] | 65 |
| CCCCCCCCCC/C=C/C=O [Tridecylenic aldehyde] | 45 |
| CC(CC=O)c1ccccc1 (stereo not drawn) [Trifernal] | 74 |
| COc1cc(C=O)ccc1O [Vanillin] | 43 |
| Vertofix coeur | 68 |
